{"source": "patent US10844077B2", "about": "“Thiazolyl-containing compounds for treating proliferative diseases” (Dana-Farber Cancer Institute, Inc., priority 2014, dated 2020)", "experiment_in_all_cases": "KINATIV assay of compounds I-3 and I-9, lysate directly labeled with ATP-biotin probe (no GF)", "format_in_all_cases": "cell-based", "key": {"[1]": {"molecular_target": "kinases in BCWM.1 cells (Homo sapiens, UniProt Q86UX6)", "conditions": "YANK3; Lys2; 1 μM, 90 min; no GF", "description": "(§1) The cells were harvested and lysed. […] Bound kinases were identified and quantitated by ACTIVX as described in Patricelli et al., Biochemistry, 2007, 46(2): 350-358. The compounds were tested in duplicates against duplicate or quadruplicate control samples."}, "[2]": {"molecular_target": "kinases in BCWM.1 cells (Homo sapiens, UniProt Q9UK32)", "conditions": "RSK4 domain1; Lys2; 1 μM, 90 min; no GF", "description": "as §1"}, "[3]": {"molecular_target": "kinases in BCWM.1 cells (Homo sapiens, UniProt P51956)", "conditions": "NEK3; Activation Loop; 1 μM, 90 min; no GF", "description": "as §1"}, "[4]": {"molecular_target": "kinases in BCWM.1 cells (Homo sapiens, UniProt P41743)", "conditions": "PKCi; Lys1; 1 μM, 90 min; no GF", "description": "as §1"}, "[5]": {"molecular_target": "kinases in BCWM.1 cells (Homo sapiens, UniProt O94806)", "conditions": "PKD3; Lys1; 1 μM, 90 min; no GF", "description": "as §1"}, "[6]": {"molecular_target": "kinases in BCWM.1 cells (Homo sapiens, UniProt Q5TCX8)", "conditions": "MLK4; Lys2; 1 μM; no GF", "description": "as §1"}, "[7]": {"molecular_target": "kinases in BCWM.1 cells (Homo sapiens, UniProt Q8NB16)", "conditions": "MLKL; Lys1; 1 μM; no GF", "description": "as §1"}, "[8]": {"molecular_target": "kinases in BCWM.1 cells (Homo sapiens, UniProt Q13418)", "conditions": "ILK; Protein Kinase Domain; 1 μM; no GF", "description": "as §1"}, "[9]": {"molecular_target": "kinases in BCWM.1 cells (Homo sapiens, UniProt O00418)", "sequence (O00418 2-725 limits assumed)": "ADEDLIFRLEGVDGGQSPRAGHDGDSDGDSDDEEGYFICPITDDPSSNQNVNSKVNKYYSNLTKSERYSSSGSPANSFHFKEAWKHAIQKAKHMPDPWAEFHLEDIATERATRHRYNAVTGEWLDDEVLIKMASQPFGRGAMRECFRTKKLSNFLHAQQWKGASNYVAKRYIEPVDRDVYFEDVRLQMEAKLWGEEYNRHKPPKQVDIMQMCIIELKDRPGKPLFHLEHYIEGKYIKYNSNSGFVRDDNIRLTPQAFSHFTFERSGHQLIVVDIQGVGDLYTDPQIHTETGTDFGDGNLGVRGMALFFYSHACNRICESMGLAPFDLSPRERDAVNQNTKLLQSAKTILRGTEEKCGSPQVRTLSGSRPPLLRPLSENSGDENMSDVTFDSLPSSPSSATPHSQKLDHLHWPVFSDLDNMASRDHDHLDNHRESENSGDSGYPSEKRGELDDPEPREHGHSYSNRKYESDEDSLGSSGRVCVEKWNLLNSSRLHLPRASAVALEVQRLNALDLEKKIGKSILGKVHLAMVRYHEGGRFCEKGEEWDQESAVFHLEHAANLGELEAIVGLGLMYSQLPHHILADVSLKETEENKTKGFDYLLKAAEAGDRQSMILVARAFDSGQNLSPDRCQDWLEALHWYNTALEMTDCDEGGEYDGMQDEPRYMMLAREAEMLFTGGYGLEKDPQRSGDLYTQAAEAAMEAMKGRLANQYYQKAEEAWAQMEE", "conditions": "eEF2K; ATP; 1 μM; no GF", "description": "as §1"}, "[10]": {"molecular_target": "kinases in BCWM.1 cells (Homo sapiens, UniProt P41240)", "sequence (P41240 2-450 limits assumed)": "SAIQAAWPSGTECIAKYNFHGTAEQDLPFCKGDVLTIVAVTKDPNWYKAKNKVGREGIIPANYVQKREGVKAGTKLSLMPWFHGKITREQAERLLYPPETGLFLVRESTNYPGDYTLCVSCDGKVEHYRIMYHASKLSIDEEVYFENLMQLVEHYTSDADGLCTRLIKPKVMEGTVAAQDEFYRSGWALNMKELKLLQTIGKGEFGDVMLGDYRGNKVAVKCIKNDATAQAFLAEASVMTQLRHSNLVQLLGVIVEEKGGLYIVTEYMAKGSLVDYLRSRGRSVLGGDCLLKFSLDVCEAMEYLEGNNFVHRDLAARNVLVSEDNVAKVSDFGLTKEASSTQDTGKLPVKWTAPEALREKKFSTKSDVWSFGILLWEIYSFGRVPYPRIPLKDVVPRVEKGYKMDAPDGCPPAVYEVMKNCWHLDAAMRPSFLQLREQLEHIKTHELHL", "conditions": "CSK; Activation Loop; 1 μM; no GF", "description": "as §1"}, "[11]": {"molecular_target": "kinases in BCWM.1 cells (Homo sapiens, UniProt Q13188)", "conditions": "MST2; Lys1; 1 μM; no GF", "description": "as §1"}, "[12]": {"molecular_target": "kinases in BCWM.1 cells (Homo sapiens, UniProt Q8IU85)", "conditions": "CaMKld; Lys1; 1 μM; no GF", "description": "as §1"}, "[13]": {"molecular_target": "kinases in BCWM.1 cells (Homo sapiens, UniProt P49841)", "conditions": "GSK3B; Lys2; 1 μM; no GF", "description": "as §1"}, "[14]": {"molecular_target": "kinases in BCWM.1 cells (Homo sapiens, UniProt P31749)", "conditions": "AKT1; ATP Loop; 1 μM; no GF", "description": "as §1"}, "[15]": {"molecular_target": "kinases in BCWM.1 cells (Homo sapiens, UniProt P06493)", "conditions": "CDC2; Protein Kinase Domain; 1 μM; no GF", "description": "as §1"}, "[16]": {"molecular_target": "kinases in BCWM.1 cells (Homo sapiens, UniProt Q14680)", "conditions": "MELK; Lys2; 1 μM; no GF", "description": "as §1"}, "[17]": {"molecular_target": "kinases in BCWM.1 cells (Homo sapiens, UniProt P50613)", "sequence (P50613 2-346 limits assumed)": "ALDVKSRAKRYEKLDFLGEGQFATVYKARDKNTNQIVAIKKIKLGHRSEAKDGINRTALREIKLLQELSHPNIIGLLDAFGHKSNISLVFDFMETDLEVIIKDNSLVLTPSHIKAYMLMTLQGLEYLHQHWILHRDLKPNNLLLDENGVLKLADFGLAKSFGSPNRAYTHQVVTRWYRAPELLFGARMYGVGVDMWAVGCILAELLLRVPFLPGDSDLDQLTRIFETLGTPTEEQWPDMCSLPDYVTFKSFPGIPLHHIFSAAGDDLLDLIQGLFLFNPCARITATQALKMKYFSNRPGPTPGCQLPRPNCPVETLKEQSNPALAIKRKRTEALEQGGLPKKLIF", "conditions": "CDK7; Lys2; 1 μM; no GF", "description": "as §1"}, "[18]": {"molecular_target": "kinases in BCWM.1 cells (Homo sapiens, UniProt P23458)", "conditions": "JAK1 domain2; Activation Loop; 1 μM; no GF", "description": "as §1"}, "[19]": {"molecular_target": "kinases in BCWM.1 cells (Homo sapiens, UniProt Q99755)", "conditions": "PIP5K1A; ATP; 1 μM, 90 min; no GF", "description": "as §1"}, "[20]": {"molecular_target": "kinases in BCWM.1 cells (Homo sapiens, UniProt Q06187)", "sequence (Q06187 2-659 limits assumed)": "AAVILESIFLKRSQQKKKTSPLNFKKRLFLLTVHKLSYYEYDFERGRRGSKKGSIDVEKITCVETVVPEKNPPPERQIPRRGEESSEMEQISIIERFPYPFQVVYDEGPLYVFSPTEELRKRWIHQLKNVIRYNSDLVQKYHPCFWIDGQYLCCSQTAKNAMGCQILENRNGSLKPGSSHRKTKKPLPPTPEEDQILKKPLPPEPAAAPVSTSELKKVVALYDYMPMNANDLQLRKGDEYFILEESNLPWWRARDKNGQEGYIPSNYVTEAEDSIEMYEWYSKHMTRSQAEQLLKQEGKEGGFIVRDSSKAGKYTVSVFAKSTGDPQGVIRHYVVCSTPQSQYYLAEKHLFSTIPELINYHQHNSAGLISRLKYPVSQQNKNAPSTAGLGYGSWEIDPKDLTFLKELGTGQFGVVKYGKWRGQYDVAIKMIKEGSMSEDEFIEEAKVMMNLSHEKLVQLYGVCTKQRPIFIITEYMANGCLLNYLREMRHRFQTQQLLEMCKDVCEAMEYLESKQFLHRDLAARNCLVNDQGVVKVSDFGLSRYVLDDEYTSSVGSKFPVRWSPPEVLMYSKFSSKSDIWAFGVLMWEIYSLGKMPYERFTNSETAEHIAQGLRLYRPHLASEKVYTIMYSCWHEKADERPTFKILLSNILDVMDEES", "conditions": "BTK; Activation Loop; 1 μM; no GF", "description": "as §1"}, "[21]": {"molecular_target": "kinases in BCWM.1 cells (Homo sapiens, UniProt Q15831)", "conditions": "LKB1; Lys2; 1 μM; no GF", "description": "as §1"}, "[22]": {"molecular_target": "kinases in BCWM.1 cells (Homo sapiens, UniProt Q13572)", "conditions": "ITPK1; ATP; 1 μM; no GF", "description": "as §1"}, "[23]": {"molecular_target": "kinases in BCWM.1 cells (Homo sapiens, UniProt P51451)", "conditions": "BLK; Activation Loop; 1 μM; no GF", "description": "as §1"}, "[24]": {"molecular_target": "kinases in BCWM.1 cells (Homo sapiens, UniProt P46734)", "conditions": "MAP2K3; Lys2; 1 μM; no GF", "description": "as §1"}, "[25]": {"molecular_target": "kinases in BCWM.1 cells (Homo sapiens, UniProt P29323)", "sequence (P29323 19-1055 limits assumed)": "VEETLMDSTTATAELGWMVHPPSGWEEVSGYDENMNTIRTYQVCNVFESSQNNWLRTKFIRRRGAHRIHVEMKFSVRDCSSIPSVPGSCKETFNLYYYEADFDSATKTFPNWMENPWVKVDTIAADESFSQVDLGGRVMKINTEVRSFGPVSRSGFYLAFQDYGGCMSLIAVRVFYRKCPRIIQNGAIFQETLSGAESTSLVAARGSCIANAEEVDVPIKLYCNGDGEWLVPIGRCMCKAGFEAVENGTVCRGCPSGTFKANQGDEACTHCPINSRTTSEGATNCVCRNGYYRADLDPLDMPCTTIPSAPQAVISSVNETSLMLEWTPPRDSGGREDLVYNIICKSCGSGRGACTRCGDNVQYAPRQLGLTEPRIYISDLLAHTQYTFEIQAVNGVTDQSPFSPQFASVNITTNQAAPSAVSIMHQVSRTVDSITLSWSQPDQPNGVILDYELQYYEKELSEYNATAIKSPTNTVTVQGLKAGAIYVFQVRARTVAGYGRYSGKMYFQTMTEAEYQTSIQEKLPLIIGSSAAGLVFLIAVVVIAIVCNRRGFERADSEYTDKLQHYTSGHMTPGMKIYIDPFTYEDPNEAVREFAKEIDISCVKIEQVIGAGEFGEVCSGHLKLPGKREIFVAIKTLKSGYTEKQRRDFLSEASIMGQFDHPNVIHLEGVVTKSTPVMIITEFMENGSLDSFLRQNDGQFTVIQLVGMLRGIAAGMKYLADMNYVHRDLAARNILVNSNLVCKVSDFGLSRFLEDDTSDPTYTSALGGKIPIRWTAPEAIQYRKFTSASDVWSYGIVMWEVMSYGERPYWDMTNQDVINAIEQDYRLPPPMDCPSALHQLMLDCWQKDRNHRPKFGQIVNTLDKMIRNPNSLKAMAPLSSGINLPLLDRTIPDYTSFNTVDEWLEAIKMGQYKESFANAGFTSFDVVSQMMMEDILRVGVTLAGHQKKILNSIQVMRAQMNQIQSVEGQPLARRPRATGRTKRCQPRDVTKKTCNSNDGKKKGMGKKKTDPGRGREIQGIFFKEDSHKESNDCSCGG", "conditions": "EphB2; Activation Loop; 1 μM; no GF", "description": "as §1"}, "[26]": {"molecular_target": "kinases in BCWM.1 cells (Homo sapiens, UniProt Q13233)", "sequence (Q13233 2-1512 limits assumed)": "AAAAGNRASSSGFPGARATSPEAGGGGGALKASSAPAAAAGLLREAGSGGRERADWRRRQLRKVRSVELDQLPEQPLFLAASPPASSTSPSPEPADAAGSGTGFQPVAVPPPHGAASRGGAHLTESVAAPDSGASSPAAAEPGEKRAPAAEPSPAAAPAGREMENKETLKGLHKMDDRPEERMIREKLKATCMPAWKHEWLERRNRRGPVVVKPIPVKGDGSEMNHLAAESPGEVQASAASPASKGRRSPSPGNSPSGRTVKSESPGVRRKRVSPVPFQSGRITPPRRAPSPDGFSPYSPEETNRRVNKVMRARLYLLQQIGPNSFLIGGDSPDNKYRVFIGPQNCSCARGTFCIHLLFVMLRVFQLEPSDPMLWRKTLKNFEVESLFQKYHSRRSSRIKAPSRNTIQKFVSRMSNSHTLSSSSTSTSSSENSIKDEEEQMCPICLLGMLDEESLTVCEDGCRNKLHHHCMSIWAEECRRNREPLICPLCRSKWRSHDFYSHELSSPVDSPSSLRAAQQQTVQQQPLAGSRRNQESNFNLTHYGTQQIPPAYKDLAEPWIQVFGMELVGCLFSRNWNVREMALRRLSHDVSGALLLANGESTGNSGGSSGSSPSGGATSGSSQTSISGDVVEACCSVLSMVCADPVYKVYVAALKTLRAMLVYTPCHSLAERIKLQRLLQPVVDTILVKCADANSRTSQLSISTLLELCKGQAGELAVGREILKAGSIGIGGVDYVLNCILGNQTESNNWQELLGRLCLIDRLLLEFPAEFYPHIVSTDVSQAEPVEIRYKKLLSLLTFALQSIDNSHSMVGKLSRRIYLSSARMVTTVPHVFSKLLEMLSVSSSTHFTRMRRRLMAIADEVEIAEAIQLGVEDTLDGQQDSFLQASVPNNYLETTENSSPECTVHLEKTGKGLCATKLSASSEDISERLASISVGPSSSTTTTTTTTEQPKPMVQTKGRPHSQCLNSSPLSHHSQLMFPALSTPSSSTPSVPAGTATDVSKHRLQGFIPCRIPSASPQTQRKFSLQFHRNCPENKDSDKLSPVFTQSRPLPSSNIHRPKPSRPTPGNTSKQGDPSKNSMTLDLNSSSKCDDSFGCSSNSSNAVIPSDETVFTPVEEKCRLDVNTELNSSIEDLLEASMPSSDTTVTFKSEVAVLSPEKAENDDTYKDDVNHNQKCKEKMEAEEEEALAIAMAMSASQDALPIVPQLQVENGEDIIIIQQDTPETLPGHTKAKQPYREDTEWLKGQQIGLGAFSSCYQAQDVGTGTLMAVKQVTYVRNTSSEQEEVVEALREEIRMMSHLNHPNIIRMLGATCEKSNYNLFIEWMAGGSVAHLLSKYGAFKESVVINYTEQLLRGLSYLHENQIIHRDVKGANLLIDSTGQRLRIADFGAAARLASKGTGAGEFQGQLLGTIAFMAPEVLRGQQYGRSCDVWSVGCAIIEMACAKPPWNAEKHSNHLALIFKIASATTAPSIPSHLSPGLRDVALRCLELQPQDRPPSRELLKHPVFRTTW", "conditions": "MAP3K1; Lys2; 1 μM; no GF", "description": "as §1"}, "[27]": {"molecular_target": "kinases in BCWM.1 cells (Homo sapiens, UniProt P27361)", "conditions": "Erk1; Lys2; 1 μM; no GF", "description": "as §1"}, "[28]": {"molecular_target": "kinases in BCWM.1 cells (Homo sapiens, UniProt Q96L34)", "conditions": "MARK4; Lys2; 1 μM; no GF", "description": "as §1"}, "[29]": {"molecular_target": "kinases in BCWM.1 cells (Homo sapiens, UniProt Q13315)", "conditions": "ATM; ATP; 1 μM; no GF", "description": "as §1"}}, "note": "Where “and” joins values, the source holds several entries; their conditions need not be identical. Equal entries are not always repeated."}
{"smiles": "CCC(=O)N1CC[C@H](Nc2nccc(Nc3ncc(C(=O)Nc4c(C)cccc4C)s3)n2)C1", "note": "[Example I-9]", "values": [{"measurement": "% change of MS signal compared to control sample", "setting": "[1]", "value": "−8.6", "unit": "%"}, {"measurement": "% change of MS signal compared to control sample", "setting": "[2]", "value": 9.1, "unit": "%"}, {"measurement": "% change of MS signal compared to control sample", "setting": "[3]", "value": "−21.2", "unit": "%"}, {"measurement": "% change of MS signal compared to control sample", "setting": "[4]", "value": 16.5, "unit": "%"}, {"measurement": "% change of MS signal compared to control sample", "setting": "[5]", "value": "−15.2", "unit": "%"}]}
{"smiles": "C=CC(=O)N1CC[C@H](Nc2nccc(Nc3ncc(C(=O)Nc4c(C)cccc4C)s3)n2)C1", "note": "[Example I-3]", "values": [{"measurement": "% change of MS signal compared to control sample", "setting": "[6]", "value": "−3.8% and −11.8%"}, {"measurement": "% change of MS signal compared to control sample", "setting": "[7]", "value": "−5.6% and −4.6%"}, {"measurement": "% change of MS signal compared to control sample", "setting": "[8]", "value": "3.6% and 9.7%"}, {"measurement": "% change of MS signal compared to control sample", "setting": "[9]", "value": "−18.9% and −27.8%"}, {"measurement": "% change of MS signal compared to control sample", "setting": "[10]", "value": "36% and 60.3%"}, {"measurement": "% change of MS signal compared to control sample", "setting": "[11]", "value": "−12.1% and −18%"}, {"measurement": "% change of MS signal compared to control sample", "setting": "[12]", "value": "−0.4% and −5%"}, {"measurement": "% change of MS signal compared to control sample", "setting": "[13]", "value": "9.4% and −0.5%"}, {"measurement": "% change of MS signal compared to control sample", "setting": "[14]", "value": "−20.4% and −21.9%"}, {"measurement": "% change of MS signal compared to control sample", "setting": "[15]", "value": "−0.7% and −4.3%"}, {"measurement": "% change of MS signal compared to control sample", "setting": "[16]", "value": "−12.1% and −10.6%"}, {"measurement": "% change of MS signal compared to control sample", "setting": "[17]", "value": "8.9% and 5.1%"}, {"measurement": "% change of MS signal compared to control sample", "setting": "[18]", "value": "−2.9% and −1.6%"}, {"measurement": "% change of MS signal compared to control sample", "setting": "[19]", "value": 26.2, "unit": "%"}, {"measurement": "% change of MS signal compared to control sample", "setting": "[20]", "value": "94.7% and 95.2%"}, {"measurement": "% change of MS signal compared to control sample", "setting": "[21]", "value": "−11.2% and −8.7%"}, {"measurement": "% change of MS signal compared to control sample", "setting": "[22]", "value": "8.5% and 1.5%"}, {"measurement": "% change of MS signal compared to control sample", "setting": "[23]", "value": ">96", "unit": "%"}, {"measurement": "% change of MS signal compared to control sample", "setting": "[24]", "value": "15.6% and 5.8%"}, {"measurement": "% change of MS signal compared to control sample", "setting": "[25]", "value": "91% and 91.6%"}, {"measurement": "% change of MS signal compared to control sample", "setting": "[26]", "value": "22.5% and 18.8%"}, {"measurement": "% change of MS signal compared to control sample", "setting": "[27]", "value": "−0.6% and 1.5%"}, {"measurement": "% change of MS signal compared to control sample", "setting": "[28]", "value": "−8.5% and −8.7%"}, {"measurement": "% change of MS signal compared to control sample", "setting": "[29]", "value": "20.7% and 19.5%"}]}
